Usually EC50 stands for the concentration needed to bring the measured effect to its halfway point. By CC50 is commonly meant the concentration at which the toxic effect on the cells reaches its halfway point. A word on the Kd: it is the equilibrium constant for the complex coming apart. Low values mean a tighter complex, high ones a looser complex.

For data set [1], the system named is Hepatitis C virus. Nature of the data set: Antiviral activity against HCV1b replicon (I389luc-ubi-neo/NS3-3/5.1) infected in Huh5-2 cells assessed as inhibition of viral RNA replication by luciferase reporter gene assay. The settings on record: genotype 1b, Huh-5-2. In kind it is functional, organism-based, Hepacivirus hominis. In general terms: Replicon systems follow genome replication, usually without infectious particles.

Data set [2] in a line: Selectivity index, ratio of CC50 for human Huh5-2 cells to EC50 for hepatitis C virus genotype 1b I389luc-ubi-neo/NS3-3/5.1 replicon infected in human Huh5-2 cells. In kind it is toxicity, cell-based, Huh-5-2. The settings on record: read-out: Ratio CC50/EC50.
A short description of data set [3]: Cytotoxicity against human Huh5-2 cells assessed as reduction in cell metabolic activity after 72 hrs by MTS assay. Format: ADME, cell-based, Huh-5-2. (Tetrazolium dyes change colour on reduction, which living cells bring about.)
A short description of data set [4]: Binding affinity to zinc by UV-VIS spectroscopic analysis.
Data set [5] relates to Hepatitis C virus. Nature of the data set: Antiviral activity against HCV 1b replicon (I389luc-ubi-neo/NS3-3/5.1) infected in Huh-9-13 cells assessed as inhibition of viral RNA replication by RT-PCR method. In kind it is functional, organism-based, Hepacivirus hominis. The settings on record: genotype 1b.
Data set [6] is described as follows: Cytotoxicity against human Huh-9-13 cells assessed as reduction in cell metabolic activity after 72 hrs by MTS assay. In kind it is ADME, cell-based.
Data set [7] is described as follows: Selectivity index, ratio of CC50 for human Huh-9-13 cells to EC50 for hepatitis C virus genotype 1b I389luc-ubi-neo/NS3-3/5.1 replicon infected in human Huh-9-13 cells. In kind it is toxicity, cell-based. To be noted: read-out: Ratio CC50/EC50.

Some results are limits rather than exact numbers.

Regarding `CCCCNC(=O)c1cccc2oc(-c3ccccc3O)nc12`, in data set [1], the EC50 is 7.2 µM. Also, in data set [2], the selectivity ratio was determined as 5.4. The CC50 at 72 h in data set [3] turned out to be 39 µM.
In the case of `O=C(O)c1cccc2oc(-c3ccccc3O)nc12`, the EC50 in data set [1] stood at 4.9 µM. Moreover, the dissociation constant Kd in data set [4] turned out to be 0.5 µM. Moreover, in data set [2], the selectivity ratio was found to be 5.1. In addition, the CC50 at 72 h in data set [3] was found to be 25 µM.
As for `COC(=O)c1cccc2oc(-c3ccc4ccccc4c3O)nc12`, the EC50 in data set [1] was found to be 52 µM. For the same compound, in data set [2], the selectivity ratio stood at 1.2. Moreover, the CC50 at 72 h in data set [3] was determined as 64 µM.
Take `CNC(=O)c1cccc2[nH]c(-c3ccccc3O)nc12`: the EC50 in data set [1] came out at 16 µM; in data set [5], 3.1 µM. The CC50 at 72 h in data set [6] was 47 µM; in data set [3], over 187 µM. For the same compound, the selectivity ratio in data set [2] is over 12; in data set [7], 15.
Consider `O=C(O)c1cccc2c1nc(-c1ccccc1O)n2Cc1ccccc1`, for which the EC50 amounted to 2.6 µM in data set [1] and 0.6 µM in data set [5]. The values for the CC50 at 72 h in data set [6] and in data set [3] were over 100 µM and over 145 µM, respectively. The selectivity ratio in data set [2] is over 55; in data set [7], over 167.
For `CN(C)C(=O)c1cccc2oc(-c3ccccc3O)nc12`, in data set [1], the half-maximal effective concentration (EC50) was found to be 109 µM. The selectivity ratio in data set [2] was over 1.6. In addition, the half-maximal cytotoxic concentration (CC50) at 72 h in data set [3] is over 177 µM.
Consider `COC(=O)c1cccc2[nH]c(-c3ccccc3O)nc12`, for which the EC50 in data set [1] amounted to 106 µM. In addition, in data set [4], binding was put at a Kd of 190 µM. For the same compound, in data set [2], the selectivity ratio turned out to be 1.3. In addition, the 50% cytotoxic concentration (CC50) at 72 h in data set [3] worked out at 132 µM.
Take `NC(=O)c1cccc2oc(-c3ccccc3O)nc12`: the EC50 in data set [1] was found to be 47 µM. In data set [2], the selectivity ratio was over 4.2. Moreover, the CC50 at 72 h in data set [3] was over 197 µM.
Turning to `CNC(=O)c1cccc2c1nc(-c1ccccc1O)n2Cc1ccccc1`, the EC50 in data set [1] amounted to 8.4 µM; in data set [5] it was 21 µM. The cytotoxic concentration (CC50) at 72 h stood at 38 µM in data set [6] and 101 µM in data set [3]. Further, the selectivity ratio in data set [2] turned out to be 12; in data set [7], 1.8.
As to `COC(=O)c1cccc2oc(-c3cccc4cccnc34)nc12`, the 50% effective concentration (EC50) in data set [1] is over 50 µM. Moreover, the CC50 at 72 h in data set [3] is over 50 µM.
Take `COC(=O)c1cccc2oc(-c3cc4ccccc4cc3O)nc12`: the EC50 in data set [1] is 31 µM. The selectivity ratio in data set [2] was over 1.6. Further, the 50% cytotoxic concentration (CC50) at 72 h in data set [3] is over 50 µM.
As for `COC(=O)c1cccc2oc(-c3ccccc3S)nc12`, the EC50 in data set [1] came to 2.5 µM. In data set [4], this compound returned a Kd of 0.23 µM. Besides, the selectivity ratio in data set [2] came out at 1.6. Moreover, in data set [3], the half-maximal cytotoxic concentration (CC50) at 72 h came to 4.1 µM.
For `O=C(NCc1ccccc1)c1cccc2oc(-c3ccccc3O)nc12`, in data set [1], the EC50 was determined as 10 µM. Also, the selectivity ratio in data set [2] is over 5. The CC50 at 72 h in data set [3] is over 50 µM.
Regarding `O=C(O)c1cccc2[nH]c(-c3ccccc3O)nc12`, the EC50 was determined as 24 µM in data set [1] and 23 µM in data set [5]. Besides, the CC50 at 72 h was over 100 µM in data set [6] and over 197 µM in data set [3]. Besides, the selectivity ratio in data set [2] is over 8.2; in data set [7], over 4.3.
As to `COC(=O)c1cccc2c1nc(-c1ccccc1O)n2Cc1ccccc1`, the half-maximal effective concentration (EC50) was found to be 7.5 µM in data set [1] and 0.9 µM in data set [5]. The results for the half-maximal cytotoxic concentration (CC50) at 72 h in data set [6] and in data set [3] were 95 µM and over 140 µM, respectively. Also, the selectivity ratio is over 19 in data set [2] and 106 in data set [7].
For the compound `COC(=O)c1cccc2oc(-c3c(O)ccc4ccccc34)nc12`, in data set [1], the EC50 came out at 28 µM. In addition, the selectivity ratio in data set [2] is over 1.8. In data set [3], the CC50 at 72 h was over 50 µM.
With `CNC(=O)c1cccc2oc(-c3ccccc3O)nc12`, the EC50 in data set [1] is 117 µM. Moreover, the affinity in data set [4], expressed as Kd, was 53 µM. In data set [2], the selectivity ratio was over 1.6. Besides, the 50% cytotoxic concentration (CC50) at 72 h in data set [3] is over 186 µM.
On the same counts, the results for `COC(=O)c1cccc2oc(-c3ccccc3O)nc12` are 40 µM, 65 µM, 1.8 and 71 µM.

The record behind these values is ChEMBL document CHEMBL3763034, “Exploring the importance of zinc binding and steric/hydrophobic factors in novel HCV replication inhibitors” (Bioorg Med Chem Lett, 2016).
